What was measured:
[1] = molecular target: rhTDO (recombinant human TDO) (Homo sapiens, UniProt P48775); assay: Enzyme assay using rhTDO (rate of kynurenine production); format: biochemical; details: 2 h; final concentration of the compound 10 μM; rate relative to reaction without compound; read-out: rhTDO-mediated kynurenine production
How it was run: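 Kynurenine output, as percent of untreated control after background subtraction, read at 490 nm with p-dimethylbenzaldehyde following TCA quench and 15 min heating at 50 °C. Reaction: rhTDO with compound, 10 min preincubation then 120 min at 37 °C, started by 20 mM tryptophan stock, in phosphate/ascorbate/methylene blue/catalase.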

[2] = system: subcutaneous CT-26WT syngeneic graft of large intestine cancer; assay: Drug efficacy test, combined use of compound 1, 15 or 29 and oxaliplatin, mice with subcutaneous CT-26WT syngeneic graft (Test Example 4); format: in vivo, mouse; details: 40 mg/kg oral twice a day, combined with oxaliplatin 10 mg/kg i.v.; Balb/c mice; FIG. 3
Protocol: Drug Efficacy Test on Combined Use of Compound 1, Compound 15 or Compound 29 and Oxaliplatin Using Mice with Subcutaneous CT-26WT Syngeneic Graft of Large Intestine Cancer
5×10^5 cells of syngeneic large intestine cancer cell line CT26WT were subcutaneously transplanted to each of 6-week-old female Balb/c mice. The mice were divided into 5 groups each involving 6 individuals 10 days later when the average tumor size was 139 mm^3. The oral administration (solvent for oral administration and 40 mg/kg each of compound 1, compound 15 and compound 29 were administered twice a day at a 5-hour interval from days 1 to 5 and days 8 to 12) and intravenous injection (5% glucose solution and 10 mg/kg oxaliplatin were administered once a day on days 1 and 8) of each agent were started. Then, the major axis and minor axis of subcutaneous tumor were measured three times a week using calipers, and a mean and standard error of the mean of the ratios of the calculated volumes to the volumes at the administration start day in each group were plotted. The calculation expression was Volume (mm^3)=[Width^2 (mm^2)×Length (mm)]/2. The solvent group, compound 1 and compound 15 were each dissolved in a solvent for oral administration of DMSO:PEG400:PBS=10:40:150, and compound 29 was dissolved in a solvent for oral administration of DMSO:PEG400:PBS=20:80:50.
∘: the solvent for oral administration and the 5% glucose solution, •: the solvent for oral administration and oxaliplatin, ▴: compound 1 and oxaliplatin, ▪: compound 15 and oxaliplatin, and x: compound 29 and oxaliplatin.

[3] = system: subcutaneous CT-26WT syngeneic graft of large intestine cancer; assay: Drug efficacy test, combined use of IDO/TDO inhibitor and oxaliplatin, mice with subcutaneous CT-26WT syngeneic graft (Test Example 5); format: in vivo, mouse; details: 40 mg/kg oral twice a day in 0.5% methyl cellulose, combined with oxaliplatin 10 mg/kg i.v.; Balb/c mice; FIG. 4
Protocol: Drug Efficacy Test on Combined Use of IDO/TDO Inhibitor and Oxaliplatin Using Mice with a Subcutaneous CT-26WT Syngeneic Graft of Large Intestine Cancer
5×10^5 cells of syngeneic large intestine cancer cell line CT26WT were subcutaneously transplanted to each of 6-week-old female Balb/c mice. The mice were divided into groups each involving 6 individuals 10 days later within a tumor size range of 41-427 mm^3. The oral administration (solvent for oral administration and 40 mg/kg each of epacadostat and compounds 37, 31, 7, 15, 1, 50, 52, 76, 95, 33, 49, 2, 10, 36, 103, 38 and 29 were administered twice a day at a 5-hour interval from days 1 to 5 and days 8 to 12) and intravenous injection (5% glucose solution and 10 mg/kg oxaliplatin were administered once a day on days 1 and 8) of each agent were started. Then, the major axis and minor axis of subcutaneous tumor were measured three times a week using calipers, and a mean and standard error of the mean of the ratios of the calculated volumes to the volumes at the administration start day in each group were plotted. The calculation expression was Volume (mm^3)=[[…]×Length (mm)]/2. The agent for oral administration was suspended in 0.5% methyl cellulose as a solvent for oral administration. The results are shown in FIG. 4 (if a plurality of experiments were conducted for the same agent, the results were combined).
• with the solid line: the solvent for oral administration and the 5% glucose solution, ▪ with the solid line: compound 37 and oxaliplatin, ▴ with the solid line: epacadostat and oxaliplatin, X with the solid line: compound 31 and oxaliplatin, ∘ with the solid line: the solvent for oral administration and oxaliplatin, □ with the solid line: compound 7 and oxaliplatin, Δ with the solid line: compound 15 and oxaliplatin, X with the solid line: compound 1 and oxaliplatin, • with the broken line: compound 50 and oxaliplatin, ▪ with the broken line: compound 52 and oxaliplatin, ▴ with the broken line: compound 76 and oxaliplatin, X with the broken line: compound 95 and oxaliplatin, ∘ with the broken line: compound 33 and oxaliplatin, □ with the broken line: compound 49 and oxaliplatin, Δ with the broken line: compound 2 and oxaliplatin, + with the solid line: compound 10 and oxaliplatin, rectangle with the solid line: compound 36 and oxaliplatin, • with the dotted line: compound 103 and oxaliplatin, ▪ with the dotted line: compound 38 and oxaliplatin, and ▴ with the dotted line: compound 29 and oxaliplatin.

rhTDO (recombinant human TDO), sequence (P48775 whole entry): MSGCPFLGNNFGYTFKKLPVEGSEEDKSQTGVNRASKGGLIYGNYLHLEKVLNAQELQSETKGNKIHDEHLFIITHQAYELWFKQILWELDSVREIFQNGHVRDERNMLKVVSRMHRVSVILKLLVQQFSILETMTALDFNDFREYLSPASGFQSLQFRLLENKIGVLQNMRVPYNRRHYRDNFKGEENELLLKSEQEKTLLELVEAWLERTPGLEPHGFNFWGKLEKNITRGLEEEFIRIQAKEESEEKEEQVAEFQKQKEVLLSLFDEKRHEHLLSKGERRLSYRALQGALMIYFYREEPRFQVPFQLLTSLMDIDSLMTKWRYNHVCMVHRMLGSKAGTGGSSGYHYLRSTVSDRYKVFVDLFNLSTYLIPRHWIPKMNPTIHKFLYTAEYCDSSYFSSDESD

With Cl.Cl.N=C(N)SCc1ccccc1CSC(=N)N [Compound 1, 1,2-phenylenebis(methylene) dicarbamimidothioate dihydrochloride] the remaining activity at 10 µM [1] was 13%, the “tumor growth (ratio of tumor volume to start day)” value [2] was “can suppress tumor growth” and the “tumor growth (ratio of tumor volume to start day)” value [3] was “can suppress tumor growth”.

Br.Br.N=C(N)SCc1ccc(F)cc1CSC(=N)N [Compound 2, (4-fluoro-1,2-phenylene)bis(methylene) dicarbamimidothioate dihydrobromide] was tested, and the remaining activity at 10 µM [1] was 6% and the “tumor growth (ratio of tumor volume to start day)” value [3] was “can suppress tumor growth”.

For Br.Br.N=C(N)SCc1ccc(Cl)cc1CSC(=N)N [Compound 7, (4-chloro-1,2-phenylene)bis(methylene) dicarbamimidothioate dihydrobromide], the remaining activity at 10 µM [1] was 3% and the “tumor growth (ratio of tumor volume to start day)” value [3] was “can suppress tumor growth”.

For Br.Br.N=C(N)SCc1ccc(Br)cc1CSC(=N)N [Compound 10, (4-bromo-1,2-phenylene)bis(methylene) dicarbamimidothioate dihydrobromide], the remaining activity at 10 µM [1] was 3% and the “tumor growth (ratio of tumor volume to start day)” value [3] was “can suppress tumor growth”.

For Br.Br.N=C(N)SCc1cscc1CSC(=N)N [Compound 15, thiophene-3,4-diylbis(methylene) dicarbamimidothioate dihydrobromide], the remaining activity at 10 µM [1] was 12%, the “tumor growth (ratio of tumor volume to start day)” value [2] was “can suppress tumor growth” and the “tumor growth (ratio of tumor volume to start day)” value [3] was “can suppress tumor growth”.

For c1ccc(CSC2=NCN(CC3CCCCC3)CN2)c(CSC2=NCN(CC3CCCCC3)CN2)c1 [Compound 29, 1,2-bis(((5-(cyclohexylmethyl)-1,4,5,6-tetrahydro-1,3,5-triazin-2-yl)thio)methyl)benzene], the remaining activity at 10 µM [1] was 15%, the “tumor growth (ratio of tumor volume to start day)” value [2] was “can suppress tumor growth” and the “tumor growth (ratio of tumor volume to start day)” value [3] was “can suppress tumor growth”.

With Br.Br.N=C(N)SCc1ccsc1CSC(=N)N [Compound 31, thiophene-2,3-diylbis(methylene) dicarbamimidothioate dihydrobromide] the remaining activity at 10 µM [1] was 17% and the “tumor growth (ratio of tumor volume to start day)” value [3] was “can suppress tumor growth”.

In the case of Cl.Cl.c1ccc(CCN2CN=C(SCc3cscc3CSC3=NCN(CCc4ccccc4)CN3)NC2)cc1 [Compound 33, 3,4-Bis{[(5-phenethyl-1,4,5,6-tetrahydro-1,3,5-triazin-2-yl)thio]methyl}thiophene dihydrochloride], the remaining activity at 10 µM [1] is reported as 21% and the “tumor growth (ratio of tumor volume to start day)” value [3] is reported as “can suppress tumor growth”.

In the case of Clc1cc(CSC2=NCN(CCc3ccccc3)CN2)c(CSC2=NCN(CCc3ccccc3)CN2)cc1Cl [Compound 37, 6,6′-(((4,5-Dichloro-1,2-phenylene)bis(methylene))bis(sulfanediyl))bis(3-phenethyl-1,2,3,4-tetrahydro-1,3,5-triazine)], the remaining activity at 10 µM [1] is reported as less than 7% and the “tumor growth (ratio of tumor volume to start day)” value [3] is reported as “can suppress tumor growth”.

With N/C(=N\c1ccc(Br)cc1)SCc1ccc(Br)cc1CS/C(N)=N/c1ccc(Br)cc1 [Compound 49, (4-Bromo-1,2-phenylene)bis(methylene) (E,E)-bis(N′-(4-bromophenyl)carbamimidothioate)] the remaining activity at 10 µM [1] was 15% and the “tumor growth (ratio of tumor volume to start day)” value [3] was “can suppress tumor growth”.

With Clc1cc(CSC2=NCN(CC3CCCCC3)CN2)c(CSC2=NCN(CC3CCCCC3)CN2)cc1Cl [Compound 50, 6,6′-(((4,5-Dichloro-1,2-phenylene)bis(methylene))bis(sulfanediyl))bis(3-(cyclohexylmethyl)-1,2,3,4-tetrahydro-1,3,5-triazine)] the remaining activity at 10 µM [1] was 4% and the “tumor growth (ratio of tumor volume to start day)” value [3] was “can suppress tumor growth”.

For Brc1ccc(CSC2=NCN(CC3CCCCC3)CN2)c(CSC2=NCN(CC3CCCCC3)CN2)c1 [Compound 52, 6,6′-(((4-Bromo-1,2-phenylene)bis(methylene))bis(sulfanediyl))bis(3-(cyclohexylmethyl)-1,2,3,4-tetrahydro-1,3,5-triazine)], the remaining activity at 10 µM [1] was 5% and the “tumor growth (ratio of tumor volume to start day)” value [3] was “can suppress tumor growth”.

Br.N#Cc1ccc(CNC(=O)c2ccc(Br)cc2CSC(=N)N)cc1 [Compound 76, 5-Bromo-2-((4-cyanobenzyl)carbamoyl)benzyl carbamimidothioate hydrobromide] was tested, and the remaining activity at 10 µM [1] was 15% and the “tumor growth (ratio of tumor volume to start day)” value [3] was “can suppress tumor growth”.

Br.Br.N/C(=N\c1ccc(F)cc1F)SCc1ccccc1CS/C(N)=N/c1ccc(F)cc1F [Compound 95, 1,2-Phenylenebis(methylene) (E,E)-bis(N-(2,4-difluorophenyl)carbamimidothioate)dihydrobromide] was tested, and the remaining activity at 10 µM [1] was 6% and the “tumor growth (ratio of tumor volume to start day)” value [3] was “can suppress tumor growth”.

Br.N#Cc1ccc(CNC(=O)c2cc(Br)ccc2CSC(=N)N)cc1 [Compound 103, 4-Bromo-2-((4-cyanobenzyl)carbamoyl)benzyl carbamimidothioate hydrobromide] was tested, and the remaining activity at 10 µM [1] was 22% and the “tumor growth (ratio of tumor volume to start day)” value [3] was “can suppress tumor growth”.

Reference: patent publication US12209079B2 (GENERAL INCORPORATED ASSOCIATION PHARMA VALLEY PROJECT …, priority 2017, dated 2025)
